{
  "source": "patent US20250129054A1",
  "about": "(Terran Biosciences Inc., priority 2022, published 2025)",
  "experiment": "Terminal plasma and brain concentration at the end of the zero maze study",
  "assay_type": "in vivo, Sprague-Dawley rats",
  "settings": "5, 15 and 30 mg/kg ip, male SD rats",
  "procedure": "Terminal sampling. At the end of the study, terminal blood was collected from 2 of the vehicle treated rats (>5 mL) and from all methylone HCl treated rats (500 uL) by CP under CO2. Blood samples were placed into Eppendorf tubes on ice containing 22 μL/mL blood (vehicle treated) or 11 μL EDTA (93 mg/mL) (Methylone HCl treated rats) and gently mixed. After no longer than 30 min, blood samples were centrifuged at 10,000 rpm×3 min and plasma samples (>2 mL (vehicle) or 2×100 μL (Methylone HCl treated) placed into Eppendorf tubes (Vehicle) or 96 well plates on dry ice. Immediately after blood sampling, brains were excised, rinsed in saline, blotted, weighed and snap-frozen in liquid N2. All samples were stored at −20\nTerminal sampling. At the end of the study, terminal blood was collected from 2 of the vehicle treated rats (>5 mL) and from all S-methylone HCl treated rats (500 uL) by CP under CO2. Blood samples were placed into Eppendorf tubes on ice containing 22 μL/mL blood (vehicle treated) or 11 μL EDTA (93 mg/mL) (S-methylone HCl treated rats) and gently mixed. […]",
  "data": [
    {"compound": "CNC(C)C(=O)c1ccc2c(c1)OCO2", "note": "(racemic) [racemic methylone]", "values": [
      {"measurement": "concentration in plasma and brain at the end of the zero maze study", "value": "increased in both brain and plasma at the higher doses"}
    ]}
  ]
}
